Source: patent publication US20110296540A1, “ASSAY FOR SCREENING ANTIDEPRESSANTS” (priority 2008, published 2011)
Read-outs that look alike come from different tables or passages of the source.

Key:
5-HT1A autoreceptors [1] = target: T1, 5-HT1A autoreceptors (Mus musculus, UniProt Q64264); assay: Whole cell recordings in the dorsal raphe, response to 5-HT1A agonist; type: cell-based; design: endogenous in cells; host or cells: Serotonergic neurons of the raphe nuclei in mice homozygous for tetO-1A with one copy of Pet-tTS; settings: 1A-High mice vs. 1A-Low mice; 100 nM
T1 sequence (Q64264 1-421): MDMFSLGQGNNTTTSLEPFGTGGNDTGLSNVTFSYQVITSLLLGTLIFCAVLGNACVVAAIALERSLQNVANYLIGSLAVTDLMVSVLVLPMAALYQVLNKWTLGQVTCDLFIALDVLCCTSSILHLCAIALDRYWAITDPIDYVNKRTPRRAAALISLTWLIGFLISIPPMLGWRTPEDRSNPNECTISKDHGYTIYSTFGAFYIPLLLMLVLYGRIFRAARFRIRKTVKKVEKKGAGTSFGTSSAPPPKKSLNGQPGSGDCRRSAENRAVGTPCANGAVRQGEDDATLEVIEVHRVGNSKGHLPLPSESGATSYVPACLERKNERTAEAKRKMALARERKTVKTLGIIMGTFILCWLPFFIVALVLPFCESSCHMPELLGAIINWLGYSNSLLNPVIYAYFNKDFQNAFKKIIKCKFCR
Text: Downward deflections reflect spontaneous synaptic activity.
Much of this difference is accounted for by a smaller proportion of serotonergic neurons responding to the agonist challenge in the 1A-Low mice.

5-HT1A autoreceptors [2] = target: T1, 5-HT1A autoreceptors
Method: (A) 8-OH DPAT-induced hypothermia in 1A-High and 1A-Low mice. Following establishment of baseline body temperature, animals received IP injections of 0.1 mg/kg 8-OHDAPT, 0.5 mg/kg 8-OH DPAT, or saline (N=5/dose/group). Values are expressed as core temperature change from the last recorded baseline temperature.

[3] = tested on: tet0-1A homozygous mice that do not carry the tTS transgene; assay: Control for the effects of doxycycline on baseline anxiety and depression-related behavior; type: in vivo; settings: transgene-negative littermates
Text: FIGS. 27A-C Control for the effects of doxycycline on baseline anxiety and depression-related behavior.
(C) Likewise, no differences were detected in the forced swim test on either the first (i) or second (ii) day of testing (N=47).
This was accomplished using a novel bigenic system consisting of two parts: 1) insertion of the tet0 DNA regulatory element into the promoter region of the Htr1a gene, to create the tet0-1A allele and 2) raphe-specific expression of the tetracycline-dependent transcriptional suppressor (tTS) under the control of the previously characterized 540Z Pet-1 promoter fragment (P. M. Fisher et al., Nat Neurosci 9, 1362 (Nov., 2006)). […] Removal of doxycycline for four weeks beginning at postnatal day (PND) 50 creates an adult population of animals with lower expression of 5-HT1A autoreceptors (1A-Low) (FIG. 21b). Four weeks after doxycycline removal, suppression has reached maximal levels (data not shown).

C57BL/6Ntac mice [4] = assay: Open Field paradigm, chronic corticosterone model; type: in vivo; settings: 3-week antidepressant treatment in corticosterone-treated mice; imipramine 40, fluoxetine 18 mg/kg/day
Text: The procedure described previously was used (Dulawa et al., 2004). Motor activity was quantified in four Plexiglas open field boxes 43 times 43 cm2 (MED Associates, Georgia, Vt.). Two sets of 16 pulse-modulated infrared photobeams were placed on opposite walls 2.5-cm apart to record x-y ambulatory movements. Activity chambers were computer interfaced for data sampling at 100-ms resolution. The computer defined grid lines that divided each Open Field into center and surround regions, with each of four lines being 11 cm from each wall. Dependent measures in the center were the total time and the number of entries over a 30-min period of test. The whole session was also divided in […] to analyze the time spent in the center every 5 min. The overall motor activity was quantified as the total distance traveled (cm) or distance traveled in the center divided by total distance traveled.
Mice were anesthetized with ketamine and xylazine (100 mg/ml ketamine; 20 mg/ml xylazine), placed in a stereotaxic frame and exposed to cranial irradiation using a Siemens Stabilopan X-ray system operated at 300 kVp and 20 mA. Animals were protected with a lead shield that covered the entire body, but left unshielded a 3.22×11-mm treatment field above the hippocampus (interaural 3.00 to 0.00) exposed to X-Ray. Dosimetry was done using a Capintec Model PR06G electrometer ionization chamber and Kodak Readypack Radiographic XV films. The corrected dose rate was approximately 1.8 Gy per min at a source to skin distance of 30 cm. The procedure lasted 2 min and 47 sec, delivering a total of 5 Gy. Three 5 Gy doses were delivered on days 1, 4 and 8.

C57BL/6Ntac mice [5] = assay: Forced Swim Test, chronic corticosterone model; type: in vivo; settings: for immobility duration (FST): mean±SEM
HPA axis = assay: Stress evoked increase of corticosterone levels; type: in vivo, mice; settings: acute swim stress; baseline conditions and after chronic corticosterone treatment
Method: Adult male C57BL/6Ntac mice were exposed to a 6 minutes swim stress. […]. Blood was collected into ice-chilled tubes containing EDTA and centrifuged at 3000 rpm for 10 min (at 4° C.) for separation of plasma, and plasma samples were stored at −80° C. until assayed. […]; Diagnostic Systems Laboratories, Inc. Webster, Tex.; sensitivity limit: 20 ng/ml). ACTH was measured directly in plasma using an ImmuChem™ Double Antibody hACTH 1251 RIA kit (No. 07-106101; MP Biomedicals, LLC, Orangeburg, N.Y.) with a sensitivity limit ˜5.7 pg/ml. All samples were measured simultaneously to reduce inter-assay variability.

SMILES: NCCc1c[nH]c2ccc(C(N)=O)cc12 [5-CT]
- average current elicited by agonist challenge in serotonergic neurons (5-HT1A autoreceptors [1]): significantly higher

SMILES: CCCN(CCC)C1CCc2cccc(O)c2C1 (stereo not shown) [8-OH DPAT]
- hypothermic response to 5-HT1A agonist challenge (5-HT1A autoreceptors [2]; 1A-High mice, 0.1 and 0.5 mg/kg IP): robust and dose-dependent hypothermic response
- hypothermic response to 8-OH DPAT (5-HT1A autoreceptors [2]; 1A-High vehicle control mice, 0.5 mg/kg i.p.): robust hypothermic response
- hypothermic response to 5-HT1A agonist challenge (5-HT1A autoreceptors [2]; 1A-Low mice, detected only at the highest dose): attenuated response

SMILES: C[C@H]1c2cccc(O)c2C(=O)C2=C(O)[C@]3(O)C(=O)C(C(N)=O)=C(O)[C@@H](N(C)C)[C@@H]3[C@@H](O)[C@@H]21 [doxycycline]
- effect on behavioral measures (Open Field, Light/Dark choice test, forced swim test) [3]: no effect

SMILES: CN(C)CCCN1c2ccccc2CCc2ccccc21 [imipramine]
- corticosterone-induced anxiety phenotype in the Open Field (time and entries in the center) (C57BL/6Ntac mice [4]): reversed
- immobility duration (FST) (C57BL/6Ntac mice [5]; corticosterone treated animals, alone or with antidepressant): 296.8 s
- immobility duration (FST) (C57BL/6Ntac mice [5]; non-corticosterone treated animals): 298.5 s
- duration of immobility (FST), effect (C57BL/6Ntac mice [5]; two-way ANOVA, corticosterone 7 weeks, antidepressants last 3 weeks): decreased
- stress induced corticosterone levels (HPA axis): had no effect
